Results from patent US20110256565A1, “METHODS FOR DIAGNOSIS AND TREATMENT OF NEURODEGENERATIVE DISEASES OR DISORDERS” (priority 2008, published 2011).

How the values were obtained:
neuroblastoma cells = settings: cited from earlier work
GSK3B = GSK3B (Homo sapiens, UniProt P49841); settings: cited from earlier work
PS-mutant MEFs = assay: Cinnamycin sensitivity, live/dead assay in MEFs; assay type: cell-based, mouse; settings: PS-mutant MEFs vs. control MEFs; 1 μM cinnamycin for 10 min at 37° C., live/dead assay (FIG. 41D)
Procedure: FIG. 41. Phospholipid synthesis in MEFs. FIG. 41A: Synthesis of PtdSer and PtdEtn after 3H-Ser labeling for the indicated times (hours) (n=3). FIG. 41B: Pulse-chase. MEFs labeled for 1 h with 3H-Ser; chase with cold Ser (n=3). FIG. 41C: Phospholipid synthesis in crude mitochondria (n=3 or 4) Error bars, SE; p<0.05. FIG. 41D: Cinnamycin sensitivity in MEFs. Left: Live/dead assay (1 μM cinnamycin for 10 min at 37° C.). Right: Cinnamycin-sensitivity assay (10 min at 37° C.).
AD patients have aberrant phospholipid profiles, both in fibroblasts and in brain (Pettegrew et al., (2001) Neurochem. Res. 26, 771-782; Murphy et al., (2006) Brain Res. Bull. 69, 79-85). PtdSer and PtdEtn are exported to the inner leaflet of the plasma membrane (Vance (2008) J. Lipid Res. 49, 1377-1387). […] Both the 3H-Ser and cinnamycin results are relevant to the pathogenesis of AD.
Cinnamycin sensitivity assays. To measure cinnamycin binding (Emoto et al. (1999) Proc. Natl. Acad. Sci. USA 96:12400-12405), cells are incubated with 125I-labeled streptavidin complexed with cinnamycin (Ro 09-0198) peptide complex (1251-SA-Cin; 50,000 cpm/ml; Sigma) for 1 h at 39.5° C. The radioactivities of 125I-SA-Cin bound to the cells is analyzed by bioimage analyzer. […] Viability will be measured by “live/dead” assay (Molecular Probes).

[1] = system: fibroblasts from FAD patients with pathogenic mutations in PS1 and from sporadic AD (SAD) patients; assay: Cinnamycin sensitivity, Live/Dead assay in patient fibroblasts; assay type: cell-based, human; settings: 1 μM cinnamycin for 10 min at 37° C.; fibroblasts from SAD patients (FIG. 43)
Procedure: FIG. 43. Cinnamycin sensitivity in fibroblasts from FAD patients with pathogenic mutations in PS1 (PS1) and from sporadic AD (SAD) patients. Cells were treated with 1 μM cinnamycin for 10 min at 37° C., and viabitlity was monitored by Live/Dead assay.

human erythrocytes = settings: incubation time ~2 min, 37° C., read-out: LC50 (concentration to kill 50% of the cells); cited from earlier work

GSK3B, sequence (P49841 whole entry, species assumed): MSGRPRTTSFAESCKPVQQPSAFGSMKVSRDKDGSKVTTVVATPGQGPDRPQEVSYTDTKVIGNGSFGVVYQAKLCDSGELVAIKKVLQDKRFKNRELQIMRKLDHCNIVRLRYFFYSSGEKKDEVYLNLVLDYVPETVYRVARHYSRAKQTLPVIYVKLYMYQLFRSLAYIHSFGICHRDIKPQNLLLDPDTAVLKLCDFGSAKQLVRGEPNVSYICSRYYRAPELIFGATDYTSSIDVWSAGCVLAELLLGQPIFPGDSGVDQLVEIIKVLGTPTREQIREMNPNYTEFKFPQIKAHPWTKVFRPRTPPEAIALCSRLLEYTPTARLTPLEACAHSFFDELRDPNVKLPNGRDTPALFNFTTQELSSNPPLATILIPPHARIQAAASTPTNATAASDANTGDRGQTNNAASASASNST

O=C1NC(=O)C(c2ccccc2[N+](=O)[O-])=C1Nc1ccc(O)c(Cl)c1 [SB415286]
Effect on neurite outgrowth (neuroblastoma cells): inhibit neurite outgrowth

Cn1sc(=O)n(Cc2ccccc2)c1=O [TDZD-8]
Effect on GSK3B activity (GSK3B): inhibit GSK3B activity

cinnamycin
Sensitivity to cinnamycin vs. controls (PS-mutant MEFs): more sensitive
Cinnamycin sensitivity (viability by Live/Dead assay) [1]: cinnamycin sensitivity in the SAD patients
CC50 (human erythrocytes): ~1000 µM
